Our source for the half-life values is ChEMBL document CHEMBL6178003, “Reducing Cardiovascular Side Effects of DMT Using Beta-Blockers” (ACS Med Chem Lett, 2025).

Broadly, the half-life is the time needed for the level to fall by half in the phase considered. Read a high half-life as slow loss.

Data set [1] can be described thus: Half-life in human. It counts as ADME.
A short description of data set [2]: Half-life in iv dosed human. In kind it is ADME, organism-based. The settings on record: in vivo.

The structures appear in SMILES notation.

Take `CCCC(=O)OCOC(=O)C1=C(C)NC(C)=C(C(=O)OC)C1c1cccc(Cl)c1Cl` (centres undefined) [CLEVIDIPINE]: the half-life in data set [1] was about 1 min. Turning to `COC(=O)CCc1ccc(OCC(O)CNC(C)C)cc1` (centres undefined) [ESMOLOL], the half-life in data set [2] was about 9 min. In data set [1], `CC1(C)OC[C@@H](COC(=O)CCc2ccc(OC[C@@H](O)CNCCNC(=O)N3CCOCC3)cc2)O1` [LANDIOLOL] had a half-life of about 4 min. Consider `CN(C)CCc1c[nH]c2ccccc12` [N,N-DIMETHYLTRYPTAMINE], for which the half-life in data set [1] is about 10 min.
